# Reference: US20160095837A1, “MODULATION OF MITOCHONDRIAL CALCIUM UNIPORTER ACTIVITY FOR TREATING AND PREVENTING ARRHYTHMIAS” (priority 2014, published 2016)
# Legend:
# Format in all cases: cell-based, mouse
# [1] = tested on: sinoatrial nodal (SAN) pacemaker cells; experiment: Spontaneous action potential rate of single SAN cells (perforated patch clamp); conditions: for SAN activity response to ISO: SR Ca2+ release eliminated by ryanodine or SERCA2a inhibited by thapsigargin; for SAN cell beating rate at baseline: no ISO (FIG. 10a)
# Experimental: (§1) SAN cells were placed in Tyrode's solution at 36±0.5° C. and were identified by their characteristic morphology (spindle or spider shape) and spontaneous activity. SAN cells were identified electrophysiologically by spontaneous action potentials with a slow depolarizing phase 4 and the hyperpolarization-activated current (If).^27 Spontaneous action potentials, If and ICa were recorded using the perforated (amphotericin B or β-escin in studies requiring dialysis of Ru360 and/or ATP) patch-clamp technique^28 on single SAN cells at 36±0.5° C. in Tyrode's solution. Intracellular Ca^2+ transients were recorded from single SAN cells using Fura-2 AM excited at 340 nm and 380 nm and emitted and 510 nm. Endogenous NADH from single SAN cells was measured by excitation at 350 nm and recording emitted light at 460 nm.^29 Mitochondrial Ca^2+ was measured at 535 nm from mt-pericam expressing SAN cells exited at 415 nm^20. Mitochondrial Ca^2+ entry was measured in cell membrane permeabilized cardiomyocytes isolated from DN-MCU transgenic, wild type mice and from HEK293 cells using Calcium green-5N^30.
# Isolation of single SAN cells from mice was performed according to previously published methods^22, 27, 31 with minor modifications. Mice were administered an intraperitoneal injection of avertin (20 μl/g) and monitored until unresponsive. The heart was excised and placed into Tyrode's solution (35° C.), consisting of (mM) 140 NaCl, 5.0 HEPES, 5.5 Glucose, 5.4 KCl, 1.8 CaCl2, and 1.0 MgCl2. The pH was adjusted to 7.4 with NaOH. […] The SAN was cut into smaller pieces, which were transferred and rinsed in a solution containing (mM) 140 NaCl, 5.0 HEPES, 5.5 Glucose, 5.4 KCl, 0.2 CaCl2, 0.5 MgCl2, 1.2 KH2PO4, 50 Taurine and 1 mg/ml bovine serum albumin (BSA), with pH adjusted to 7.4 using NaOH. SAN tissue pieces were digested in 5 ml of solution containing collagenase type I, elastase (Worthington), and protease type XIV (Sigma) for 20-30 min. The tissue was transferred to 10 ml of Kraft-Bruhe (KB) medium containing (mM) 100 potassium glutamate, 5.0 HEPES, 20 Glucose, 25 KCl, 10 potassium aspartate, 2.0 MgSO4, 10 KH2PO4, 20 taurine, 5 creatine, 0.5 EGTA, and 1 mg/ml BSA, with pH adjusted to 7.2 using KOH. The tissue was agitated using a glass pipette for 10 min. The cells were stored at 4° C. and studied within 7 hours.
# SAN cells were placed in Tyrode's solution at 36±0.5° C. SAN cells were identified by their characteristic morphology (spindle or spider shape) and spontaneous activity in all single cell experiments. SAN cells were also identified electrophysiologically by typical spontaneous action potentials with slow depolarizing phase 4 and the hyperpolarization-activated current (If) in electrophysiological experiments.
# Spontaneous action potentials (APs) and If were recorded using the perforated (amphotericin B or β-escin) patch-clamp technique^28 on single SAN cell at 36±0.5° C. in Tyrode's solution (0.5 mM BaCl2 was added to the bath solution when recording If^32). The pipette was filled with (mM) 130 potassium aspartate, 10 NaCl, 10 HEPES, 0.04 CaCl2, amphotericin B 240 μg/ml with pH adjusted to 7.2 with KOH. SAN cells with stable APs lasting at least 5 min were included in the experiments. β-escin 25 μM was substituted for amphotericin B to allow dialysis of Ru360 or ATP. When recording If, membrane potential was held at −35 mV, the voltage steps were applied for 5 s ranging from −125 mV to −45 mV in 10 mV increments or vice versa.^33 ICa was measured using the perforated patch technique at […] as previously described.^22 ICa was confirmed by its sensitivity to Nifedipine 5 μM. Depolarizing voltage pulses (300 ms in duration) to various potentials (−60 mV to 60 mV in 10 mV step) were applied after 50 ms at −40 mV to inactivate INa from a holding potential of −70 mV. […]
# [2] = tested on: SERCA2a activity ([Ca2+]cyto decline); experiment: Cytoplasmic Ca2+ transient decay (Fura-2 AM) in SAN cells
# Experimental: as §1
# Cytosolic Ca^2+ levels were recorded from Fura-2-loaded cells, excited at wavelengths of 340 and 380 nm, and imaged with a 510 nm long-pass filter. Single isolated SAN cells were loaded with 0.1 μM Fura-2 AM for 20 minutes, and then perfused for 20 minutes to de-esterfy the Fura-2 AM in normal Tyrode's solution. After placement on a recording chamber, the cells were perfused in normal Tyrode's solution at 36° C.±0.5. Spindle-shaped, spontaneously beating cells were chosen for experiments. Action potential recording was performed simultaneously.
# [3] = tested on: mitochondrial Ca2+ concentration ([Ca2+]mito); experiment: Mitochondrial Ca2+ measurement with mt-pericam in cultured SAN cells; conditions: ISO 100 nM
# Experimental: as §1
# Freshly isolated mouse SAN tissue was cut into small pieces and put into 35 mm tissue culture plates with DMEM. […] Expression of the recombinant ratio-5mt-pericam and DN-MCU in SAN cells was detected by GFP fluorescence. […]
# NADH = NADH autofluorescence in SAN cells; conditions: ISO 100 nM
# Experimental: as §1
# The autofluorescence of endogenous NADH, which derives primarily from mitochondria,^29,35 was measured as described^29. NADH was excited at 350 nm (AT350/SOX, Chroma) and fluorescence was recorded at 460 nm (ET460/50m and T400LP, Chroma). […]
# [4] = ATP dialysis, SAN cells from mice expressing phospholamban N27A
compound,measurement,setting,value
Nc1ncnc2c1ncn2[C@@H]1O[C@H](COP(=O)(O)OP(=O)(O)OP(=O)(O)O)[C@@H](O)[C@H]1O [ATP],"SAN cell rate response to ISO, ATP dialysis 8 mM",[1]; ATP dialysis 8 mM,does not enhance
same,"SAN rate responses to ISO, ATP dialysis alone",[1]; ATP dialysis without Ru360,had no affect
same,SAN action potential frequency in N27A SAN cells,[1]; [4],did not significantly increase
same,"Inhibitory effect of Ru360 on SAN cell action potential frequency responses to ISO, with ATP co-dialysis",[1]; co-dialysis with ATP 4 mM and Ru360,reversed
same,"DN-MCU dependent loss of the ISO rate response, with ATP co-dialysis","[1]; cultured SAN cells expressing DN-MCU, ATP co-dialysis",rescued
same,Basal SAN cell rates,"[1]; dialysis, no ISO",neither Ru360 nor ATP had any affect
same,Rate of [Ca2+]cyto decline after ISO with Ru360 and ATP co-dialysis,"[2]; ATP 4 mM co-dialysis with Ru360, relative to ISO-stimulated values without Ru360",restored
same,Rate of [Ca2+]cyto decline in N27A SAN cells,[2]; [4],did not significantly increase
"CC(C)NCC(O)c1ccc(O)c(O)c1 (stereo not shown) [ISO, isoproterenol]",Rate of action potential initiation,"[1]; ISO, concentration-dependent",increased
same,Rate of decline in [Ca2+]cyto,[2]; ISO vs control bath solution,significantly increased
same,[Ca2+]mito,[3],caused an increase
same,NADH fluorescence,NADH,increased
C/C=C(/C)C(=O)O[C@H]1C(C)=C2[C@H]([C@@H]1OC(=O)CCCCCCC)[C@@](C)(OC(C)=O)C[C@H](OC(=O)CCC)[C@@]1(O)[C@H]2OC(=O)[C@@]1(C)O [thapsigargin],SAN activity response to ISO,[1],significantly reduced
same,SAN cell beating rate at baseline,[1],reduce
ryanodine,SAN activity response to ISO,[1],significantly reduced
same,SAN cell beating rate at baseline,[1],reduce
